# Measurements from US20210353573A1, “A SOFT-GEL CAPSULE FORMULATION, METHOD OF MANUFACTURE AND USE THEREOF” (Chanelle Pharmaceuticals Manufacturing Ltd., priority 2018, published 2021).
# Assay: Excipient compatibility studies (glycerol)
# Type: physicochemical
# Conditions: mixture with glycerol
# Experimental: Various studies were carried out to determine an appropriate capsule shell formulation.
substance,measurement,value
ibuprofen lysine [ibuprofen lysinate],Compatibility with glycerol (colour change indicating degradation),turned brownish
